Assay results published in patent US20100099676A1 (SHIONOGI & CO., LTD., priority 2006, published 2010).

Tests used:
Assay in all cases: Enzyme inhibiting activity of MMPs, fluorogenic peptide substrate
Type in all cases: biochemical
MMP-9 = molecular target: T1, MMP-9 (Homo sapiens, UniProt P14780); conditions: substrate MOCAc-Pro-Leu-Gly-Leu-A2Pr(DNP)-Ala-Arg-NH2, fluorescent intensity
T1 construct: purchased Calbiochem (EMD/MERCK Biosciences)
Procedure, shortened: (§1)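 Recombinant human enzymes with the fluorogenic substrate MOCAc-Pro-Leu-Gly-Leu-A2Pr(DNP)-Ala-Arg-NH2. Fluorescence was read for enzyme+substrate±inhibitor and substrate±inhibitor blanks.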

MMP-2 = molecular target: T2, MMP-2 (Homo sapiens, UniProt P08253); conditions: substrate MOCAc-Pro-Leu-Gly-Leu-A2Pr(DNP)-Ala-Arg-NH2, fluorescent intensity
T2 construct: purchased Calbiochem (EMD/MERCK Biosciences)
T2 sequence (P08253 110-660): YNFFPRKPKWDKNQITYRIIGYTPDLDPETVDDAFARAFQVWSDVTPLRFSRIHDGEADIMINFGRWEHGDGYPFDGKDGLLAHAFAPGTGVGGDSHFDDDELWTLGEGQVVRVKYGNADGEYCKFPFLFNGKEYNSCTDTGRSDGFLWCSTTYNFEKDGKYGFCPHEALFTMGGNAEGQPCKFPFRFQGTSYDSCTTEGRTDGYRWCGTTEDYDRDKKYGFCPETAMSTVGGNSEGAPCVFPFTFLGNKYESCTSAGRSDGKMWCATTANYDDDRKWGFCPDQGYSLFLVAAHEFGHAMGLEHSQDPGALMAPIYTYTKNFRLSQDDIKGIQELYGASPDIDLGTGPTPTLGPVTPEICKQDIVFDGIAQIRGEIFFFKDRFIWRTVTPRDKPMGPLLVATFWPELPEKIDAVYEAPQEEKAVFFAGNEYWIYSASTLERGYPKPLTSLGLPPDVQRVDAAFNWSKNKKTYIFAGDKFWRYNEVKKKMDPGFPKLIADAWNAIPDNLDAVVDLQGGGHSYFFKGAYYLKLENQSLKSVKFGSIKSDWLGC
Procedure, shortened: as §1

MMP-13 = molecular target: T3, MMP-13 (Homo sapiens, UniProt P45452); conditions: APMA-activated proenzyme; substrate MOCAc-Pro-Leu-Gly-Leu-A2Pr(DNP)-Ala-Arg-NH2, fluorescent intensity; read-out: IC50 MMP-13
T3 construct: purchased Calbiochem (EMD/MERCK Biosciences)
Procedure, shortened: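 Pro-MMP-13 was activated with 1 mM APMA at 37° C for 2 h in 50 mM Tris-HCl pH 7.6, 0.3 M NaCl, 10 mM CaCl2, 0.005% Brij35. Activity was read by fluorescence using MOCAc-Pro-Leu-Gly-Leu-A2Pr(DNP)-Ala-Arg-NH2 substrate, with enzyme and inhibitor blank corrections. IC50 is the concentration giving 50% inhibition.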

T1 sequence (P14780 94-707): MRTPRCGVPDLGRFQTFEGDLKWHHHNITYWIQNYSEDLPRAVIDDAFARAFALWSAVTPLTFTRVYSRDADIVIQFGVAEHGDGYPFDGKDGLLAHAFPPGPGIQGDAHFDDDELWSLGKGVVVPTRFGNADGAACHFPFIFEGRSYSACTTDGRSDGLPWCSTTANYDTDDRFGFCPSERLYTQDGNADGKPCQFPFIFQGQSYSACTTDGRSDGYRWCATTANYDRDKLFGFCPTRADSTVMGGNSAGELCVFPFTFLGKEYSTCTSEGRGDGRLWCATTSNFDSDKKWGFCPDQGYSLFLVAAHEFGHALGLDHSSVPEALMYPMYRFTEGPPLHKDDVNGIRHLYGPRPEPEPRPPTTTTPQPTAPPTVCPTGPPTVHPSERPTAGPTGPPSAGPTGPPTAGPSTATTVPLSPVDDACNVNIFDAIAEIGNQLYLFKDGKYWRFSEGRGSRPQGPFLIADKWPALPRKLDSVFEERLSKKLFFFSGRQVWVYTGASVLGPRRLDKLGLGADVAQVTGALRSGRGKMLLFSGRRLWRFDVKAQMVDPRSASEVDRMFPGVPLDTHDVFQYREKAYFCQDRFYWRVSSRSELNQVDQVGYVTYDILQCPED

Row | Compound | IC50 (MMP-9) [nM] | IC50 (MMP-2) [nM] | IC50 (MMP-13) [nM]
1 | CC(C)[C@@H](NS(=O)(=O)N1CCN(c2ccc(C#Cc3ccc4ncn(Cc5ccc(F)cc5)c(=O)c4c3)cc2)CC1)C(=O)O [Compound V-59, (R)-2-(4-{4-[3-(4-fluorobenzyl)-4-oxo-3,4-dihydroquinazolin-6-ylethynyl]-phenyl}-piperazine-1-sulfonylamino)-3-methylbutanoic acid] | > 10000 | 1000 to 10000 | 10
2 | CC(C)[C@@H](NS(=O)(=O)N1CCN(c2ccc(C#Cc3ccc4c(c3)c(=O)n(Cc3ccc(F)cc3)c(=O)n4C)cc2)CC1)C(=O)O [Compound V-60, (R)-2-(4-{4-[3-(4-fluorobenzyl)-1-methyl-2,4-dioxo-1,2,3,4-tetrahydroquinazolin-6-ylethynyl]-phenyl}-piperazine-1-sulfonylamino)-3-methylbutanoic acid] | > 10000 | > 10000 | 21
3 | CC(C)[C@@H](NS(=O)(=O)N1CCN(c2ccc(C#Cc3ccc4[nH]c(=O)n(CC#N)c(=O)c4c3)cc2)CC1)C(=O)O [Compound V-63, (R)-2-{4-[4-(3-cyanomethyl-2,4-dioxo-1,2,3,4-tetrahydroquinazolin-6-ylethynyl)-phenyl]-piperazine-1-sulfonylamino}-3-methylbutanoic acid] | > 10000 | 1000 to 10000 | 8
4 | CC(C)[C@@H](NS(=O)(=O)N1CCN(c2ccc(C#Cc3ccc4[nH]c(=O)n(Cc5cccc(F)c5)c(=O)c4c3)cc2)CC1)C(=O)O [Compound V-65, (R)-2-(4-{4-[3-(3-fluorobenzyl)-2,4-dioxo-1,2,3,4-tetrahydroquinazolin-6-ylethynyl]-phenyl}-piperazine-1-sulfonylamino)-3-methylbutanoic acid] | > 10000 | > 10000 | 17
5 | CC(C)[C@@H](NS(=O)(=O)N1CCN(c2ccc(C#Cc3ccc4c(c3)c(=O)n(CC#N)c(=O)n4C)cc2)CC1)C(=O)O [Compound V-68, (R)-2-{4-[4-(3-cyanomethyl-1-methyl-2,4-dioxo-1,2,3,4-tetrahydroquinazolin-6-ylethynyl)-phenyl]-piperazine-1-sulfonylamino}-3-methylbutanoic acid] | 1000 to 10000 | 1000 to 10000 | 5
6 | C[C@@H](NS(=O)(=O)N1CCN(c2ccc(C#Cc3ccc4c(c3)c(=O)n(Cc3ccc(F)cc3)c(=O)n4C)cc2)CC1)C(=O)O [Compound V-71, (R)-2-(4-{4-[3-(4-fluorobenzyl)-1-methyl-2,4-dioxo-1,2,3,4-tetrahydroquinazolin-6-ylethynyl]-phenyl}-piperazine-1-sulfonylamino)-proponic acid] | > 10000 | > 10000 | 8
7 | CC(C)[C@@H](NS(=O)(=O)N1CCN(c2ccc(C#Cc3ccc4c(c3)C(=O)N(Cc3cccc(F)c3)C(C)(C)N4)cc2)CC1)C(=O)O [Compound V-74, (R)-2(4-{4-[3-(3-fluorobenzyl)-2,2-dimethyl4-oxo-1,2,3,4-tetrahydroquinazolin-6-ylethynyl]-phenyl}-piperazine-1-sulfonylamino)-3-methylbutanoic acid] | > 10000 | 1000 to 10000 | 16
8 | CC(C)[C@@H](NS(=O)(=O)N1CCN(c2ccc(C#Cc3ccc4c(c3)c(=O)n(Cc3ccc(F)c(F)c3)c(=O)n4C)cc2)CC1)C(=O)O [Compound V-76, (R)-2-(4-{4-[3-(3,4-difluorobenzyl)-1-methyl-2,4-dioxo-1,2,3,4-tetrahydroquinazolin-6-ylethynyl]-phenyl}-piperazine-1-sulfonylamino)-3-methylbutanoic acid] | > 10000 | > 10000 | 18
9 | CC(C)[C@@H](NS(=O)(=O)N1CCN(c2ccc(C#Cc3nc(-c4cccc(OCc5ccc(C(N)=O)cc5)c4)cs3)cc2)CC1)C(=O)O [Compound V-78, (R)-2-[4-(4-{4-[3-(4-carbamoylbenzyloxy)-phenyl]-thiazol-2-ylethynyl}-phenyl)-piperazine-1-sulfonylamino]-3-methylbutanoic acid] | > 10000 | > 10000 | 4
10 | CNC(=O)c1ccc(COc2cccc(-c3csc(C#Cc4ccc(N5CCN(S(=O)(=O)N[C@@H](C(=O)O)C(C)C)CC5)cc4)n3)c2)cc1 [Compound V-79, (R)-3-methyl-2-[4-(4-{4-[3-(4-methylcarbamoylbenzyloxy)-phenyl]-thiazol-2-ylethynyl}-phenyl)-piperazine-1-sulfonylamino]-butanoic acid] | > 10000 | > 10000 | 4
11 | CC(C)[C@@H](NS(=O)(=O)N1CCN(c2ccc(C#Cc3ccnc(C(=O)NCc4ccc5oc(=O)n(C)c5c4)c3)cc2)CC1)C(=O)O [Compound V-85, (R)-3-methyl-2-[4-(4-{2-[(3-methyl-2-oxo-2,3-dihydrobenzoxazol-5-ylmethyl)-carbamoyl]-pyridin-4-ylethynyl}-phenyl)-piperazine-1-sulfonylamino]-butanoic acid] | > 10000 | 1000 to 10000 | 2
12 | CC(=O)Nc1cccc(-c2csc(C#Cc3ccc(N4CCN(S(=O)(=O)N[C@@H](C(=O)O)C(C)C)CC4)cc3)n2)c1 [Compound V-86, (R)-2-(4-{4-[4-(3-acetylaminophenyl)-thiazol-2-ylethynyl]-phenyl}-piperazine-1-sulfonylamino)-3-methylbutanoic acid] | > 10000 | 1000 to 10000 | 12
13 | CC(C)[C@@H](NS(=O)(=O)N1CCN(c2ccc(C#Cc3ccc4ccnc(C(N)=O)c4c3)cc2)CC1)C(=O)O [Compound V-88, (R)-2-{4-[4-(1-carbamoylisoquinolin-7-ylethynyl)-phenyl]-piperazine-1-sulfonylamino}-3-methylbutanoic acid] | > 10000 | 1000 to 10000 | 24
14 | C[C@@H](NS(=O)(=O)N1CCN(c2ccc(C#Cc3ccnc(C(=O)NCc4ccc(Cl)cc4)c3)cc2)CC1)C(=O)O [III-1, (R)-2-(4-{4-[2-(4-chrolobenzylcarbamoyl)-pyridin-4-ylethynyl]-phenyl}-piperazine-1-sulfonylamino)-proponic acid] | > 10000 | 1000 to 10000 | 3
15 | COCCOc1ccc(C#Cc2ccc(N3CCN(S(=O)(=O)N[C@@H](C(=O)O)C(C)C)CC3)cc2)cc1C(=O)NCC#N [III-2, (R)-2-(4-{4-[3-(cyanomethylcarbamoyl)-4-(2-methoxyethoxy)-phenylethynyl]-phenyl}-piperazine-1-sulfonylamino)-3-methylbutanoic acid] | > 10000 | 1000 to 10000 | 9
16 | C[C@@H](NS(=O)(=O)N1CCN(c2ccc(C#Cc3cc(C(=O)NCc4ccccc4)c(=O)n(C)c3)cc2)CC1)C(=O)O [III-4, (R)-2-{4-[4-(5-benzylcarbamoyl-1-methyl-6-oxo-1,6-dihydropyridin-3-ylethynyl)-phenyl]-piperazine-1-sulfonylamino}-proponic acid] | > 10000 | 1000 to 10000 | 6
17 | C[C@@H](NS(=O)(=O)N1CCN(c2ccc(C#Cc3ccc4ccn(Cc5ccccc5)c(=O)c4c3)cc2)CC1)C(=O)O [III-5, (R)-2-{4-[4-(2-benzyl-1-oxo-1,2-dihydroisoquinolin-7-ylethynyl)-phenyl]-piperazine-1-sulfonylamino}-proponic acid] | > 10000 | 1000 to 10000 | 5
